Data: the NIST ThermoML archive (doi:10.1016/j.tca.2018.06.008)
Numbers after ± are expanded uncertainties.

Details: 101.33 kPa, Liquid, Hot disk method

Row | thermal conductivity (298.15 K) [W/m/K] | thermal conductivity (303.15 K) [W/m/K] | thermal conductivity (308.15 K) [W/m/K] | thermal conductivity (313.15 K) [W/m/K] | thermal conductivity (318.15 K) [W/m/K] | thermal conductivity (323.15 K) [W/m/K] | Structure (SMILES)
1 | 0.2514 ± 0.0074 | 0.2535 ± 0.0061 | 0.2551 ± 0.012 | 0.2559 ± 0.0076 | 0.2568 ± 0.011 | 0.2579 ± 0.011 | OCCO [1,2-ethanediol]
2 | 0.6132 ± 0.011 | 0.6201 ± 0.012 | 0.6249 ± 0.012 | 0.6302 ± 0.013 | 0.6368 ± 0.011 | 0.6427 ± 0.014 | O [water]
